Reference: ChEMBL document CHEMBL1201862, “PubChem BioAssay data set” (2004)
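Values below derive from 48-hour exposures of cells grown in 96-well plates, with endpoints linearly interpolated between the two concentrations bracketing the appropriate inhibition level. Abbreviation: GI50, concentration required for 50% inhibition of growth.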 The source made the active and inactive calls. Cut-off read from the data, not from the text of the source: active = GI50 up to about 1.1 µM and inactive = higher.

Assays:
Experiment in all cases: NCI anticancer screen, dose series, 48 h
[1] = test system: HCC 2998
[2] = test system: NCI-H226
[3] = test system: NCI-H522
[4] = test system: UO-31
[5] = test system: MDA-MB-435
[6] = test system: OVCAR-8
[7] = test system: NCI-H23
[8] = test system: BT-549
[9] = test system: ACHN
[10] = test system: SNB-75
[11] = test system: T47D
[12] = test system: CAKI-1
[13] = test system: NCI-H460
[14] = test system: SF-539
[15] = test system: COLO 205
[16] = test system: EKVX
[17] = test system: NCI/ADR-RES
[18] = test system: HCT-116
[19] = test system: LOX IMVI
[20] = test system: HOP-92

Measured: GI50

O=[N+]([O-])c1ccc2nc(O)c(/C=C(\O)c3ccccc3)nc2c1
inactive: [1] > 100 µM | [2] 17.6 µM | [3] 12.5 µM | [4] 48.9 µM | [5] 35.2 µM | [6] 11.5 µM | [7] 17.2 µM | [8] 76.7 µM | [9] 26.4 µM | [10] 16 µM | [11] 61.7 µM | [12] 21.4 µM | [13] 3.83 µM | [14] 15.3 µM | [15] > 100 µM | [16] 49.4 µM | [17] 10 µM | [18] 13.7 µM

Cc1nc(-c2ccc(/N=C/c3ccc(N(CCOS(C)(=O)=O)CCOS(C)(=O)=O)cc3C)cc2)cs1
inactive: [1] 30 µM | [2] 5.71 µM | [3] 24.3 µM | [4] 18.7 µM | [5] 72.9 µM | [6] 51.9 µM | [19] 19.4 µM | [7] 35.4 µM | [8] 28.2 µM | [9] 3.82 µM | [10] 40.9 µM | [11] 7.23 µM | [13] 9.46 µM | [14] 3.04 µM | [15] 28.5 µM | [17] > 100 µM | [18] 34.8 µM

CCCCCCCCCCCCCCCC(=O)OC(COC(C)=O)CO[PH](=O)O (stereo not given)
inactive: [1] 21.4 µM | [3] 15.1 µM | [4] 26.3 µM | [20] 12 µM | [5] 29.5 µM | [6] 18.1 µM | [19] 23.2 µM | [8] > 100 µM | [9] 27.7 µM | [10] 22.4 µM | [11] 53.2 µM | [12] 41.9 µM | [13] 31.6 µM | [14] 20.8 µM | [15] 96.8 µM | [16] 49.3 µM | [17] 23.1 µM

S=C(S)NCC1CCC(CNC(=S)S)CC1 (stereo not given)
inactive: [1] 20.4 µM | [3] 12.7 µM | [4] 30.9 µM | [5] 23.3 µM | [6] 20.9 µM | [19] 18.8 µM | [7] 44.5 µM | [8] 44.1 µM | [9] 20.7 µM | [10] 34.9 µM | [11] 16.3 µM | [12] 16.9 µM | [13] 70.5 µM | [14] 38.5 µM | [15] 42 µM | [16] 62.1 µM | [17] 67.8 µM | [18] 19.7 µM

Cc1cccc2c1C(=O)[C@@](C)([C@]1(C)Nc3cccc(C)c3C1=O)N2
inactive: [1] > 100 µM | [2] > 100 µM | [3] > 100 µM | [4] > 100 µM | [5] 31.1 µM | [6] > 100 µM | [19] > 100 µM | [7] > 100 µM | [8] > 100 µM | [9] > 100 µM | [10] 30.4 µM | [11] > 100 µM | [12] > 100 µM | [13] > 100 µM | [14] > 100 µM | [15] > 100 µM | [16] > 100 µM | [17] > 100 µM | [18] > 100 µM

O=C1/C(=C/c2ccc(Br)s2)NC(=S)N1CN1CCOCC1
inactive: [1] > 100 µM | [2] 34.5 µM | [3] 64 µM | [4] 37.5 µM | [5] 56.9 µM | [6] 61.5 µM | [19] 24.5 µM | [7] 36.3 µM | [8] 34 µM | [9] 48 µM | [10] 85.5 µM | [11] 49.5 µM | [12] 25.2 µM | [13] 49.8 µM | [15] 33 µM | [16] 8.38 µM | [17] 64.9 µM | [18] 31.8 µM

COc1cc2nc(-c3cccs3)nc(Nc3cccc([N+](=O)[O-])c3)c2cc1OC
inactive: [2] 18.2 µM | [3] 17.6 µM | [4] 19.2 µM | [5] 17 µM | [6] 21.5 µM | [19] 18.4 µM | [7] 11 µM | [8] 19.5 µM | [9] 15.7 µM | [10] 29 µM | [11] 16.4 µM | [12] 21.9 µM | [13] 26.3 µM | [14] 18.2 µM | [15] 19.3 µM | [16] 15.3 µM | [17] 20.8 µM | [18] 17.8 µM

Cc1cc2nc(N3C(=O)/C(=C/c4ccccc4S)N=C3c3ccccc3)sc2cc1C
inactive: [1] 31.8 µM | [4] 26.1 µM | [20] 22.4 µM | [5] 22.1 µM | [6] 46.5 µM | [19] 29.2 µM | [8] 28.6 µM | [9] 32.7 µM | [10] 32.6 µM | [11] 54.1 µM | [12] 59.7 µM | [13] 26.5 µM | [14] 56.6 µM | [15] 30.6 µM | [16] 27 µM | [17] 26.7 µM | [18] 18.3 µM

CNC(=O)c1nc[nH]c1/N=N/N(C)N
inactive: [1] > 100 µM | [2] > 100 µM | [3] > 100 µM | [4] > 100 µM | [5] > 100 µM | [6] > 100 µM | [19] 74.6 µM | [7] > 100 µM | [8] > 100 µM | [10] 80.9 µM | [11] > 100 µM | [12] > 100 µM | [13] 55 µM | [14] > 100 µM | [15] > 100 µM | [16] > 100 µM | [17] > 100 µM | [18] > 100 µM

CCC(CCN)(CCN)[N+](=O)[O-]
inactive: [3] 58.3 µM | [20] > 100 µM | [5] > 100 µM | [6] > 100 µM | [8] > 100 µM | [10] > 100 µM | [11] > 100 µM | [12] > 100 µM | [13] > 100 µM | [14] > 100 µM | [15] > 100 µM | [16] > 100 µM | [17] > 100 µM | [18] > 100 µM

OC(c1ccc(Cl)cc1)(c1ccc(Cl)cc1)c1cncnc1
inactive: [1] > 10 µM | [2] 20.7 µM | [4] 16 µM | [20] 17.4 µM | [5] 18.3 µM | [6] 21.4 µM | [19] 23.2 µM | [7] 26.3 µM | [8] 19.2 µM | [10] 21.2 µM | [11] 28.2 µM | [12] 17.6 µM | [13] 18.2 µM | [15] 19 µM | [17] 26.4 µM | [18] 14.3 µM
